The record followed here is US20210238136A1, “AZETIDINE DERIVATIVE, AND PRODRUG THEREOF” (DAIICHI SANKYO COMPANY, LIMITED, priority 2018, published 2021).

Data set [1] concerns activated T cells (CD4+ T cells from mouse spleen). The data set is described as follows: 3H-thymidine uptake in activated T cells. The format is cell-based, mouse (C57BL/6J). As to conditions: T-cell; mouse spleen CD4+ T cells activated with Dynabeads Mouse T-Activator CD3/CD28; read-out: IC50 (3H-thymidine uptake, proliferation of activated T cells). The procedure: Effect of Test Substance on ^3H-Thymidine Uptake in Activated T Cells
The effect of test substance on ^3H-thymidine uptake by activation was evaluated using T cells from mouse spleen. The spleen was removed from euthanized C57BL/6J mice, and finely sliced, then triturated on a cell strainer (40 μm mesh), and cells were collected by centrifugation. The collected splenocytes were treated with Cold lyser containing 0.17 M NH4Cl for 5 minutes to hemolytically remove red blood cells and then washed. The resulting cells were used as the splenocytes. From the splenocytes, CD4+ T cells were isolated using an EasySep Mouse CD4+ T cell isolation kit (STEMCELL Technologies Inc.). The CD4+ T cells were seeded into 96-well round-bottom plates. To the plates, test substance or Vehicle was added, and Dynabeads Mouse T-Activator CD3/CD28 (Thermo Fisher Scientific Inc.) was added, then the cells were cultured at 37° C. under 5% CO2. After 24 hours of culture, ^3H-Thymidine (PerkinElmer Inc.) diluted with medium was added to each well, then the cells were further cultured at 37° C. under 5% CO2 overnight. To measure ^3H-Thymidine uptake into the nuclei of the cells, the cells were collected into filter plates UniFilter-96 GF/B (PerkinElmer Inc.) using a FilterMate Universal Harvester (PerkinElmer Inc.). The filter plates were placed in a dryer and left still for 2 hours or more. Then, scintillation cocktail MicroScint-O (PerkinElmer Inc.) was added to the plates, and radioactivity was measured with TopCount NXT (PerkinElmer Inc.). With the radioactivity of the test substance-free group set as 100% and the radioactivity of the non-activation group as 0%, the relative value (proliferation rate, % of vehicle) of the radioactivity of each well to which test substance was added was calculated. The value of % of vehicle was incorporated into analysis software Prism (Version 5.0, GraphPad Software), the “Nonlinear Regression Log (inhibitor) vs Reaction Variable Inclination” was selected, and then sigmoid fitting with restrictions of Bottom=0 and Top=100 was performed to calculate 50% inhibitory concentration (IC50).

Data set [2] relates to IFN-α production in mouse splenocytes (pDC activation by CpG-ODN D35). The data set is described as follows: IFN-α production in mouse splenocytes stimulated with TLR9 ligand CpG-ODN D35. The format is cell-based, mouse (C57BL/6J). As to conditions: for IC50: Splenocyte, mouse splenocytes, CpG-ODN D35 1 μM, 24 hours of culture, ELISA; for effect on IFN-α production: test substances added at 1 nM to 300 nM. The procedure:
The test substances were added at concentrations of 1 nM to 300 nM.
Effect of Test Substance on IFN-α Production in Mouse Splenocytes
Production of IFN-α by TLR9 ligand CpG-ODN D35 stimulation activating pDC was evaluated. Splenocytes were prepared from euthanized C57BL/6J mice in the same way as Test Example 1. Splenocytes were seeded into 96-well round-bottom plates, and test substance was added, and then the plates were preincubated for 30 minutes. Then, CpG-ODN D35 (final concentration 1 μM) was added, and the cells were cultured at 37° C. under 5% CO2. After 24 hours of culture, the culture supernatant was collected, and the IFN-α concentration in the supernatant was measured with an ELISA kit (Mouse IFN-alpha Platinum ELISA Kit, eBioscience). The relative value of the IFN-α concentration of each well when the IFN-α production of the test substance-free group was set as 100% and the amount of the non-stimulated group as 0% (IFN-α production rate, % of vehicle) was calculated. The relative value of the IFN-α concentration was incorporated into analysis software Prism (Version 5.0, GraphPad Software), the “Nonlinear Regression Log (inhibitor) vs Reaction Variable Inclination” was selected for each compound, and then sigmoid fitting with restrictions of Bottom=0 and Top=100 was performed to create a graph of the concentration reaction curve and calculate 50% inhibitory concentration (IC50).
On the technique in general: An ELISA detects its analyte on a solid surface through an enzyme-linked reagent.

Data set [3] in a line: Pharmacokinetic test of prodrug compounds in mouse. Type of data set: in vivo, females, non-fasting). The settings on record: female, C57BL/6J; mouse plasma, IV 1 mg/kg of the active compound; read-out: AUClast after IV administration. The procedure:
For prodrug compounds, the compounds of Examples 44, 103, and 104 (active compound of these is the compound of Example 41) and the compounds of Examples 89, 94, and 97 (active compound of these is the compound of Example 42), the plasma concentrations of the active compounds after oral administration to mice were measured, and various PK parameters were calculated. The method was as follows:
To C57BL/6J mice (females, non-fasting), the Example compounds were administered and blood sampling was performed under the following conditions.
Intravenous (IV): 1 mg/kg (n=2, 10% HP-β-CD dissolved in Saline/DMSO=95/5, v/v) Oral (PO): 10 mg/kg (n=2, 0.5% HPC dissolved in water)
After blood sampling, plasma was obtained by centrifugation, and to 10 μL of the obtained plasma, an equal amount of DMSO was added. […] The obtained samples were measured and quantitatively analyzed using MassLynx (version 4.1, Waters Corporation) under the following conditions.
From the plasma concentration measurements of the obtained active compound, the following PK parameters were calculated using Moment (Microsoft Excel).
AUClast: Area under plasma concentration-time curve to the last quantifiable time point Cmax: Maximum plasma concentration

For `N[C@@H](Cc1cccc(S(=O)(=O)N2CC(Oc3ccc(F)cc3)(c3ccccc3)C2)c1)C(=O)O` [Example 41, (S)-2-Amino-3-(3-((3-(4-fluorophenoxy)-3-phenylazetidin-1-yl)sulfonyl)phenyl)propanoic acid], the IC50 in data set [1] turned out to be 5.1 nM; in data set [2], 21 nM. Also, in data set [2], the “effect on IFN-α production” value was “concentration-dependent suppression effects”. The AUC(0-t) in data set [3] is 728 ng·h/mL.
For `N[C@@H](Cc1cccc(S(=O)(=O)N2CC(Oc3cccc(F)c3)(c3ccccc3)C2)c1)C(=O)O` [Example 42, (S)-2-Amino-3-(3-((3-(3-fluorophenoxy)-3-phenylazetidin-1-yl)sulfonyl)phenyl)propanoic acid], in that order: 4.1 nM, 13 nM, “concentration-dependent suppression effects” and 499 ng·h/mL.
